Reference: patent US20080058330A1, “Compounds and Combinations Thereof for Inhibiting Beta-Amyloid Production and Methods of Use Thereof” (Roskamp Research LLC, priority 2006, published 2008)

What was measured:
7W WT APP751 CHO cells = assay: Screening of dihydropyridine compounds (Maybridge), Aβ1-40 and Aβ1-42 ELISA (Example 2); type: cell-based, Chinese hamster; conditions: 30 μM, 24 hours (FIG. 5A, 5B)
Protocol: Dihydropyridine compounds were obtained from Maybridge (England). Each compound was dissolved in DMSO. 7W WT APP751 CHO cells overexpressing APP751 were plated into 96-well culture plates in 200 μL of culture medium. Each compound from the library was added to confluent cells to a final concentration of 30 μM. After 24 hours of treatment, culture medium was collected and dissolved 10-fold and 2-fold for measuring the level of Aβ1-40 and Aβ1-42, respectively. Aβ1-40 and Aβ1-42 were determined using commercially available ELISAs (Biosource, CA), following the recommendations of the manufacturer.

SMILES | melting point | concentration of Aβ1-40 compared to controls (7W WT APP751 CHO cells) | concentration of Aβ1-42 compared to controls (7W WT APP751 CHO cells) | concentration of total β-amyloid (Aβ1-40+Aβ1-42) compared to controls (7W WT APP751 CHO cells)
CC(=O)C1=C(C)NC(C)=C(C(C)=O)C1c1ccccc1Cl [Example 7, 4-(2-Chlorophenyl)-1,4-dihydro-2,6-dimethylpyridine-3,5-di(2-ethanone)] | 196 to 197 °C | – | – | –
CC1=C(C(=O)OC(C)(C)C)C(c2cccc(Cl)c2)C(C(=O)OC(C)(C)C)=C(C)N1 [Example 21, Di-tert-butyl 4-(3-chlorophenyl)-1,4-dihydro-2,6-dimethylpyridine-3,5-dicarboxylate] | 189.5 to 190.5 °C | – | – | –
CC1=C(C(=O)OC(C)(C)C)C(c2ccc(F)c(Br)c2)C(C(=O)OC(C)(C)C)=C(C)N1 [Example 42, Di-tert-butyl 4-(3-bromo-4-fluorophenyl)-1,4-dihydro-2,6-dimethylpyridine-3,5-dicarboxylate] | 171 to 172 °C | – | – | –
CC1=C(C(=O)OC(C)(C)C)C(c2ccccc2I)C(C(=O)OC(C)(C)C)=C(C)N1 [Example 28, Di-tert-butyl 1,4-dihydro-4-(2-iodophenyl)-2,6-dimethylpyridine-3,5-dicarboxylate] | 184 to 185 °C | – | – | –
CCOC(=O)C1=C(C)NC(C)=C(C(=O)OCC)C1c1ccc(Br)cc1 [JFD 01209, diethyl 4-(4-bromophenyl)-2,6-dimethyl-1,4-dihydropyridine-3,5-dicarboxylate] | – | significantly decreased | significantly decreased | significantly decreased
CCOC(=O)C1=C(C)NC(C)=C(C(=O)OCC)C1c1ccc(OC)cc1Cl [RJC 03413, diethyl 4-(2-chloro-4-methoxyphenyl)-2,6-dimethyl-1,4-dihydro-3,5-pyridinedicarboxylate] | – | significantly decreased | – | significantly decreased
CCOC(=O)C1=C(C)NC(C)=C(C(=O)OCC)C1c1ccccc1Cl [JFD 03305, diethyl 4-(2-chlorophenyl)-2,6-dimethyl-1,4-dihydropyridine-3,5-dicarboxylate] | – | significantly decreased | significantly decreased | significantly decreased
COC(=O)C1=C(C)NC(C)=C(C(=O)OC)C1c1ccc(-c2ccsc2C(=O)OC)o1 [SEW 02070, dimethyl 4-{5-[2-(methoxycarbonyl)-3-thienyl]-2-furyl}-2,6-dimethyl-1,4-dihydropyridine-3,5-dicarboxylate] | – | significantly decreased | – | significantly decreased
CCOC(=O)C1=C(C)NC(C)=C(C(=O)OCC)C1c1ccccc1[N+](=O)[O-] [JFD 03311, diethyl 2,6-dimethyl-4-(2-nitrophenyl)-1,4-dihydropyridine-3,5-dicarboxylate] | – | significantly decreased | – | significantly decreased
O=C1C=C(c2ccccc2)CN(C2CCCCC2)C1=O [HTS 01512, 1-cyclohexyl-5-phenyl-1,6-dihydro-2,3-pyridinedione] | – | significantly decreased | significantly decreased | significantly decreased
CC1=C(C#N)C(c2ccc(Cl)c(Cl)c2)C(C#N)=C(C)N1 [JFD 03292, 4-(3,4-dichlorophenyl)-2,6-dimethyl-1,4-dihydropyridine-3,5-dicarbonitrile] | – | significantly decreased | – | significantly decreased
O=C1CC(c2ccccc2)CC(=O)N1c1ccc(Oc2ccc(Cl)cc2)cc1 [PD 00463, 1-[4-(4-chlorophenoxy)phenyl]-4-phenyldihydropyridine-2,6(1H,3H)-dione] | – | significantly decreased | significantly decreased | significantly decreased
